Columns and labels:
LRRK2 kinase = target: T1, LRRK2 kinase (Homo sapiens, UniProt Q5S007); assay: Biochemical assay for LRRK2 (coupled pyruvate kinase/lactate dehydrogenase assay); settings: 26.4 nM LRRK2 (residues 970-2528), peptide substrate, 1 mM ATP
T1 construct: (residues 970-2528; ID NO; 4); purchased Thermo Fisher
Procedure: Activity of LRRK2 kinase was determined spectroscopically using a coupled pyruvate kinase/lactate dehydrogenase assay that continuously monitors the ATP hydrolysis-dependent oxidation of NADH (e.g., Schindler et al. Science (2000) 289: 1938-1942). Assays were conducted in 384-well plates (100 uL final volume) using 26.4 nM LRRK2 (Thermo Fisher), 0.1 mM peptide substrate (RLGRDKYKTLRQIRQ (SEQ ID NO: 6)), 1.5 units pyruvate kinase, 2.1 units lactate dehydrogenase, 1 mM phosphoenol pyruvate, 0.28 mM NADH and 1 mM ATP in assay buffer (100 mM Tris, pH 7.5, 15 mM MgCl2, 0.5 mM DTT, 0.004% (w/v) BSA, and 0.004% Triton X-100). Inhibition of LRRK2 was measured by adding serial diluted test compound (final assay concentration of 1% DMSO). A decrease in absorption at 340 nm was monitored continuously for 6 hours at 30° C. on a multi-mode microplate reader (BioTek). The reaction rate was calculated using the 2-3 h time frame. The reaction rate at each concentration of compound was converted to percent inhibition using controls (i.e. reaction with no test compound and reaction with a known inhibitor) and IC50 values were calculated using software routines in Prism (GraphPad software).

[1] = system: ULK kinase substrate ATG13 (phospho-Serine 318 ATG13) in A549 cells; assay: pATG13 ELISA in mutant KRas A549 cells in combination with trametinib; type: cell-based; settings: A549 (KRAS mutant) human lung cancer cells, with 250 nM trametinib, overnight
Procedure: A549 (KRAS mutant) human lung cancer cells (6,000 cells/well) were added to a 384-well tissue-culture treated plate in 50 μL of pre-warmed DMEM medium supplemented with 10% characterized fetal bovine serum (Invitrogen, Carlsbad, Calif.), 100 units/mL penicillin G, and 100 μg/mL streptomycin and allowed to grow overnight at 37° C., 5% CO2, and 95% humidity. The following day, 10 μL of media containing trametinib or DMSO as a control was added to wells. The final concentration of trametinib in wells was 250 nM. A dose response of a test compound (0.6 μL per well) was added. DMSO (0.6 μL) was added to control wells. The plate was briefly shaken to mix wells and then incubated at 37° C. overnight. The next day, the media was aspirated and cells were washed with Dulbecco's Phosphate Buffered Saline (Gibco). Cells were lysed using MPER lysis buffer (Pierce, Rockford, Ill.) containing Halt Phosphatase and Protease Inhibitors (Pierce, Rockford, Ill.) and Phosphatase inhibitor cocktail 2 (Sigma, St. Louis, Mo.) at 4° C. for 10 minutes with shaking.
Cellular levels of phospho-Serine 318 ATG13 (pATG13) were measured via an ELISA method. Total ATG13 Antibody (Cell Signaling Cat #13273) was used to coat the wells. The plate was incubated at 4° C. overnight and washed with ELISA wash buffer (Biolegend Cat #421601). The wells were then blocked with assay diluent (Biolegend Cat #421203) for 1 hour at room temperature. Plate wells were washed with ELISA wash buffer. Cell lysate was added to wells and incubated at room temperature for 2 hours. Plate wells were washed with ELISA wash buffer. Biotinylated pS318-ATG13 antibody (Rockland Immunochemicals Cat #600-401-C49) was diluted in assay diluent and added to each well and incubated at room temperature for 1 hour. Plate wells were washed with ELISA wash buffer. Streptavidin linked to horseradish peroxidase (Thermo Fisher Cat #21140) was diluted in assay diluent and added to each well and incubated at room temperature for 1 hour. Plate wells were washed with ELISA wash buffer. High sensitivity TMB substrate (Biolegend Cat #421101) was added to each well and incubated at room temperature for 20 minutes. The reaction was stopped with 2N Sulfuric Acid. The plate was analyzed at on a plate reader measuring absorbance at 450 nm and 540 nm (background). Signal was calculated by first subtracting the background absorbance at 540 nm from the absorbance at 450 nm for each well. Next, the background corrected absorbance at 450 nm from blank wells was subtracted from test wells. Data was compared to control wells to determine % ATG13 phosphorylation. GraphPad Prism was used to calculate IC50 values.

ULK1 kinase = target: T2, ULK1 kinase (Homo sapiens, UniProt O75385); assay: Biochemical assay for ULK1.2 (coupled pyruvate kinase/lactate dehydrogenase assay); settings: 19 nM ULK1 (residues 1-314), myelin basic protein substrate, 1 mM ATP
T2 construct: purchased Eurofins 14-959
T2 sequence (O75385 with tags, fused parts or gaps): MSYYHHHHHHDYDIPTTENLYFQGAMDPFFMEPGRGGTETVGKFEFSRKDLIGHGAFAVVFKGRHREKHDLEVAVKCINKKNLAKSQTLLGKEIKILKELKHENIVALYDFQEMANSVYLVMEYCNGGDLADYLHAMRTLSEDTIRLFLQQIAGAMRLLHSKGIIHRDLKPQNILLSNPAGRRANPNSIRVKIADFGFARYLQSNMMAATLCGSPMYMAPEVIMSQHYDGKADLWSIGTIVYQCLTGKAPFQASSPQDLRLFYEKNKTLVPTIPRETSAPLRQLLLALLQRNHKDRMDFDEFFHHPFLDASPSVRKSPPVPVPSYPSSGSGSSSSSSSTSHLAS
Procedure: Activity of ULK1 kinase was determined spectroscopically using a coupled pyruvate kinase/lactate dehydrogenase assay that continuously monitors the ATP hydrolysis-dependent oxidation of NADH (e.g., Schindler et al. Science (2000) 289: 1938-1942). Assays were conducted in 384-well plates (100 uL final volume) using 19 nM ULK1 (Eurofins CAT #14-959), 0.25 mg/mL myelin basic protein, 1.5 units pyruvate kinase, 2.1 units lactate dehydrogenase, 1 mM phosphoenol pyruvate, 0.28 mM NADH and 1 mM ATP in assay buffer (100 mM Tris, pH 7.5, 15 mM MgCl2, 0.5 mM DTT, 0.1% octyl-glucoside, 0.002% (w/v) BSA, and 0.002% Triton X-100). Inhibition of ULK1 was measured by adding serial diluted test compound (final assay concentration of 1% DMSO). A decrease in absorption at 340 nm was monitored continuously for 6 hours at 30° C. on a multi-mode microplate reader (BioTek). The reaction rate was calculated using the 2-3 h time frame. The reaction rate at each concentration of compound was converted to percent inhibition using controls (i.e. reaction with no test compound and reaction with a known inhibitor) and IC50 values were calculated by fitting a four-parameter sigmoidal curve to the data using Prism (GraphPad software).

T1 sequence (Q5S007 with tags, fused parts or gaps): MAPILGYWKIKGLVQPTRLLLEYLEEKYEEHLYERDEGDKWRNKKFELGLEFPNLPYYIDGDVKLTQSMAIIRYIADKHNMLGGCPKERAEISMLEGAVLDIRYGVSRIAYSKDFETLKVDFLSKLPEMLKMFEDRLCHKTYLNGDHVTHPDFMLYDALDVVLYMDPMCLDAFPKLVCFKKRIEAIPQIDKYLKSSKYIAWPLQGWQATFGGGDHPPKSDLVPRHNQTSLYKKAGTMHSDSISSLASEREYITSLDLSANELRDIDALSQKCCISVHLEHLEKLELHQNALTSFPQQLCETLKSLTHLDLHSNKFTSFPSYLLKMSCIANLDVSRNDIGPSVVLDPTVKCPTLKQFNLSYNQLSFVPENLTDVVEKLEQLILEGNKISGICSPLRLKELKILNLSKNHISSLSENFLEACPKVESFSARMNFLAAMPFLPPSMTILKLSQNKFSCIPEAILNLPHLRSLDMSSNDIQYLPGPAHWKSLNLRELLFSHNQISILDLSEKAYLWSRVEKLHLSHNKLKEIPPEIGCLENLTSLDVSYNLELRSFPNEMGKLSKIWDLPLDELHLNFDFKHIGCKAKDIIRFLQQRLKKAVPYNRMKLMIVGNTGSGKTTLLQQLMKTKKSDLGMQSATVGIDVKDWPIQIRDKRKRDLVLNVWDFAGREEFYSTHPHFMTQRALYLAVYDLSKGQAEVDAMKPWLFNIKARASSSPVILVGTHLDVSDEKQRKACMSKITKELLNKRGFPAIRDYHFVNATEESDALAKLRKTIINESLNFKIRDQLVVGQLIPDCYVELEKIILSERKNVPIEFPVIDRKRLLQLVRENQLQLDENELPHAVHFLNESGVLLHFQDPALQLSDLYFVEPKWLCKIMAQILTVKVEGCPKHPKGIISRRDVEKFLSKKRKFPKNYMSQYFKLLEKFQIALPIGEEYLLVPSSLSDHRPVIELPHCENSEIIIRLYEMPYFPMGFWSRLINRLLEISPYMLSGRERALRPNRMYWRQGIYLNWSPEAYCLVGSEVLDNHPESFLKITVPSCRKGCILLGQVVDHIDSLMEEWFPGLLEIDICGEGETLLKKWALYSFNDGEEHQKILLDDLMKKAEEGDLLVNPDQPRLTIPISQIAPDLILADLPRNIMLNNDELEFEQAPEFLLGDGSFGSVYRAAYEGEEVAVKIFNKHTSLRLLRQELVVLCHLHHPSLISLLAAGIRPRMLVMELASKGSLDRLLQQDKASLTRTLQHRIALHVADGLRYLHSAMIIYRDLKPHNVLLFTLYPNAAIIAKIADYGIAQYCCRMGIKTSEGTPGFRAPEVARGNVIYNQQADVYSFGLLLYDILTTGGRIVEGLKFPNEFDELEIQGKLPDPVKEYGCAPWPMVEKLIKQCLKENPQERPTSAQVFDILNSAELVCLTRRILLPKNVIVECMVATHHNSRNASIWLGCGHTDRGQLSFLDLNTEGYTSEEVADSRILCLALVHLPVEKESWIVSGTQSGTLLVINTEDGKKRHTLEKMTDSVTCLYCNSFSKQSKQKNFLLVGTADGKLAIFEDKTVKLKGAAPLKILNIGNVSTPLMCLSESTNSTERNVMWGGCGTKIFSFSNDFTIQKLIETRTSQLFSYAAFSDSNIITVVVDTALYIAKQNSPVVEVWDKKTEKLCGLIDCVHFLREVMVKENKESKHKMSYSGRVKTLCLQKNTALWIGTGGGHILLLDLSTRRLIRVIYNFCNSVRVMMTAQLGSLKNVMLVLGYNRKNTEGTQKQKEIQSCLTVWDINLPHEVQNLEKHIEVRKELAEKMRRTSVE

SMILES	IC50 (LRRK2 kinase) [nM]	IC50 [1] [nM]	IC50 (ULK1 kinase) [nM]
CC(C)c1cc(N2CCN(C)CC2)ccc1Nc1ncc(Br)c(NCCCNC(=O)C2CCC2)n1 [Example 8]	600 to 20000	100 to 300	
COc1cc(N2CCN(C)CC2)ccc1Nc1ncc(C(F)(F)F)c(NCCCNC(=O)C2CCC2)n1 [Example 4]	1 to 100	100 to 300	
CC(C)c1cc(N2CCN(C)CC2)ccc1Nc1ncc(C(F)(F)F)c(NCCCNC(=O)C2CCC2)n1 [Example 3]	1 to 100	100 to 300	

Results, then the molecule that gave them:

IC50 (LRRK2 kinase) [nM]	IC50 [1] [nM]	IC50 (ULK1 kinase) [nM]	SMILES
100 to 300	10 to 100		CN1CCN(c2ccc(Nc3ncc(C(F)(F)F)c(NCCCNC(=O)C4CCC4)n3)c(C3CC3)c2)CC1 [Example 14]
100 to 300	300 to 600	25 to 100	Cc1cc(N2CCN(C)CC2)ccc1Nc1ncc(C(F)(F)F)c(NCCCNC(=O)C(C)(C)C)n1 [Example 12]

Source: US11590134B2, “Aminopyrimidine amide autophagy inhibitors and methods of use thereof” (Deciphera Pharmaceuticals, LLC, priority 2019, dated 2023)
